Data: PubChem BioAssay (NCI)
“And” between values parts separate entries of the source, which are not always exact repeats. Equal values may be shown once.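 A five-concentration, 48-hour dose response in 96-well plates underlies each endpoint, interpolated linearly between surrounding concentrations. Here, GI50 denotes the concentration required for 50% inhibition of growth. TGI is the concentration that stops growth completely.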

Tests used:
Test in all cases: NCI anticancer screen, dose series, 48 h
786-0 renal = tested on: 786-0 renal
DU-145 prostate = tested on: DU-145 prostate
EKVX NSCLC = tested on: EKVX NSCLC
HS 578T breast = tested on: HS 578T breast
K-562 leukemia = tested on: K-562 leukemia
MALME-3M melanoma = tested on: MALME-3M melanoma
NCI-H23 lung = tested on: NCI-H23 lung
NCI-H522 lung = tested on: NCI-H522 lung
SW-620 colon = tested on: SW-620 colon
RXF 393 renal = tested on: RXF 393 renal

Compound: Cc1c(Cl)cccc1C(=O)Nc1nc2c(s1)CN(C(=O)c1ccc(C(F)(F)F)cc1)CC2
- GI50 (786-0 renal): 0.184 µM
- TGI (786-0 renal): > 33.3 µM
- GI50 (DU-145 prostate): 0.194 µM
- TGI (DU-145 prostate): > 50 µM
- GI50 (EKVX NSCLC): 0.285 µM
- TGI (EKVX NSCLC): > 50 µM
- GI50 (HS 578T breast): 0.0699 µM
- TGI (HS 578T breast): > 50 µM
- GI50 (K-562 leukemia): 0.0261 µM
- TGI (K-562 leukemia): > 50 µM
- GI50 (MALME-3M melanoma): 0.515 µM
- TGI (MALME-3M melanoma): 17.8 µM
- GI50 (NCI-H23 lung): 0.186 µM
- TGI (NCI-H23 lung): > 50 µM
- GI50 (NCI-H522 lung): 0.0252 µM
- TGI (NCI-H522 lung): 2.33 µM
- GI50 (SW-620 colon): 0.0656 µM
- TGI (SW-620 colon): > 50 µM

Compound: CCCCCCCCCCCCCCCC(=O)OCC1OC(n2cc(F)c(=O)[nH]c2=O)C(N)C(O)C1O (stereo not drawn)
- TGI (786-0 renal): 35.2 µM
- TGI (EKVX NSCLC): 35.6 µM
- TGI (K-562 leukemia): 32.8 µM
- TGI (MALME-3M melanoma): 38.2 µM
- TGI (NCI-H23 lung): 39.3 µM
- TGI (NCI-H522 lung): 31.7 µM
- TGI (SW-620 colon): 30.4 µM

Compound: Cc1cc2c(cc1Cl)SC1=NN(C)C(C)N1S2(=O)=O (stereo not drawn)
- GI50 (786-0 renal): > 100 µM
- TGI (786-0 renal): > 100 µM
- GI50 (DU-145 prostate): > 100 µM
- TGI (DU-145 prostate): > 100 µM
- GI50 (EKVX NSCLC): > 100 µM
- TGI (EKVX NSCLC): > 100 µM
- GI50 (HS 578T breast): > 100 µM
- TGI (HS 578T breast): > 100 µM
- GI50 (K-562 leukemia): > 100 µM
- TGI (K-562 leukemia): > 100 µM
- GI50 (MALME-3M melanoma): > 100 µM
- TGI (MALME-3M melanoma): > 100 µM
- GI50 (NCI-H23 lung): > 100 µM
- TGI (NCI-H23 lung): > 100 µM
- GI50 (NCI-H522 lung): 88.8 µM
- TGI (NCI-H522 lung): > 100 µM
- GI50 (SW-620 colon): > 100 µM
- TGI (SW-620 colon): > 100 µM

Compound: Cc1nc(Nc2ccccc2)sc1C(=O)CC(=O)C(=O)Nc1c(C(C)C)cccc1C(C)C
- TGI (786-0 renal): > 100 µM
- TGI (EKVX NSCLC): 89.5 µM
- TGI (K-562 leukemia): > 100 µM
- TGI (MALME-3M melanoma): > 100 µM
- TGI (NCI-H23 lung): > 100 µM
- TGI (NCI-H522 lung): > 100 µM
- TGI (RXF 393 renal): > 100 µM
- TGI (SW-620 colon): > 100 µM

Compound: O=C(c1ccc(Cl)cc1Cl)C1[C@H]2C(=O)N(c3ccc(Cc4ccc(N5C(=O)[C@@H]6ON(c7ccccc7)C(C(=O)c7ccc(Cl)cc7Cl)[C@@H]6C5=O)cc4)cc3)C(=O)[C@H]2ON1c1ccccc1 (stereo partly drawn)
- TGI (786-0 renal): > 50 µM
- TGI (K-562 leukemia): > 50 µM
- TGI (MALME-3M melanoma): > 50 µM
- TGI (NCI-H23 lung): > 50 µM
- TGI (NCI-H522 lung): > 50 µM
- TGI (RXF 393 renal): > 50 µM
- TGI (SW-620 colon): > 50 µM

Compound: Cc1ccc2c(c1)-c1c3c(nn1-c1ccccc1)-c1ccccc1SC3O2 (stereo not drawn)
- TGI (786-0 renal): > 100 µM
- TGI (EKVX NSCLC): > 100 µM
- TGI (K-562 leukemia): > 100 µM
- TGI (MALME-3M melanoma): > 100 µM
- TGI (NCI-H23 lung): > 100 µM
- TGI (NCI-H522 lung): > 100 µM
- TGI (RXF 393 renal): > 100 µM
- TGI (SW-620 colon): > 100 µM

Compound: CCOC(=O)/C(C1=NCCN1)=C(\O)c1ccccc1
- TGI (786-0 renal): > 100 µM
- TGI (EKVX NSCLC): > 100 µM
- TGI (K-562 leukemia): > 100 µM
- TGI (MALME-3M melanoma): > 100 µM
- TGI (NCI-H23 lung): > 100 µM
- TGI (NCI-H522 lung): > 100 µM
- TGI (RXF 393 renal): > 100 µM
- TGI (SW-620 colon): > 100 µM

Compound: COc1cc2ccnc3c2c(c1OC)-c1coc(SC)c1-3
- TGI (786-0 renal): > 100 µM
- TGI (K-562 leukemia): > 100 µM
- TGI (MALME-3M melanoma): > 100 µM
- TGI (NCI-H522 lung): > 100 µM
- TGI (RXF 393 renal): 52.1 µM
- TGI (SW-620 colon): > 100 µM

Compound: c1cncc(C2N3CCCCC3[C@@H]3c4[nH]c5ccccc5c4CCN23)c1 (stereo partly drawn)
- TGI (786-0 renal): > 100 µM
- TGI (EKVX NSCLC): > 100 µM
- TGI (K-562 leukemia): > 100 µM
- TGI (NCI-H23 lung): > 100 µM
- TGI (RXF 393 renal): > 100 µM
- TGI (SW-620 colon): > 100 µM

Compound: NC(=O)CN(CC(N)=O)C(N)=O
- TGI (786-0 renal): > 100 µM
- TGI (EKVX NSCLC): > 100 µM
- TGI (K-562 leukemia): > 100 µM
- TGI (MALME-3M melanoma): > 100 µM
- TGI (NCI-H23 lung): > 100 µM
- TGI (NCI-H522 lung): > 100 µM
- TGI (RXF 393 renal): > 100 µM
- TGI (SW-620 colon): > 100 µM

Compound: CC(=O)[CH-]C(=O)c1ccccc1.CC(=O)[CH-]C(=O)c1ccccc1.CC[O-].CC[O-].[Hf+4]
- GI50 (786-0 renal): > 100 µM
- TGI (786-0 renal): > 100 µM
- GI50 (EKVX NSCLC): 38.2 µM
- TGI (EKVX NSCLC): > 100 µM
- GI50 (K-562 leukemia): > 100 µM
- TGI (K-562 leukemia): > 100 µM
- GI50 (MALME-3M melanoma): > 100 µM
- TGI (MALME-3M melanoma): > 100 µM
- GI50 (NCI-H23 lung): > 100 µM
- TGI (NCI-H23 lung): > 100 µM
- GI50 (NCI-H522 lung): > 100 µM
- TGI (NCI-H522 lung): > 100 µM
- GI50 (RXF 393 renal): > 100 µM
- TGI (RXF 393 renal): > 100 µM
- GI50 (SW-620 colon): > 100 µM
- TGI (SW-620 colon): > 100 µM

Compound: CC1=NN(C(=O)c2ccccc2O)C(=O)/C1=C/c1ccc(O)cc1
- TGI (786-0 renal): > 100 µM
- TGI (DU-145 prostate): > 100 µM
- TGI (EKVX NSCLC): > 100 µM
- TGI (K-562 leukemia): > 100 µM
- TGI (MALME-3M melanoma): > 100 µM
- TGI (NCI-H23 lung): 19.9 µM
- TGI (NCI-H522 lung): 17.4 µM
- TGI (SW-620 colon): > 100 µM

Compound: C=CCN=C(N/N=C/c1ccc([N+](=O)[O-])o1)NS(=O)(=O)c1cc(C(=O)Nc2ccc(Cl)cc2)c(Cl)cc1SC
- GI50 (786-0 renal): 6.94 µM
- TGI (786-0 renal): > 100 µM
- GI50 (DU-145 prostate): 2.72 µM
- TGI (DU-145 prostate): > 35.2 µM
- GI50 (EKVX NSCLC): 2.63 µM
- TGI (EKVX NSCLC): 6.58 µM
- GI50 (HS 578T breast): > 41.9 µM
- TGI (HS 578T breast): > 100 µM
- GI50 (K-562 leukemia): 2.41 µM
- TGI (K-562 leukemia): > 21.2 µM
- GI50 (MALME-3M melanoma): 5.08 µM
- TGI (MALME-3M melanoma): 63.4 µM
- GI50 (NCI-H23 lung): > 62.7 µM
- TGI (NCI-H23 lung): > 100 µM
- GI50 (NCI-H522 lung): > 58.8 µM
- TGI (NCI-H522 lung): > 100 µM
- GI50 (SW-620 colon): 1.02 µM
- TGI (SW-620 colon): > 100 µM

Compound: COc1ccc2c(CN3CCCC[C@H]3C(=O)O)cc3cc4c(cc3c2c1)OCO4
- GI50 (786-0 renal): 6.71 µM
- TGI (786-0 renal): > 100 µM
- GI50 (DU-145 prostate): 5.72 µM
- TGI (DU-145 prostate): 24.7 µM
- GI50 (EKVX NSCLC): 3 µM
- TGI (EKVX NSCLC): 6.77 µM
- GI50 (HS 578T breast): 1.53 µM
- TGI (HS 578T breast): 4.4 µM
- GI50 (K-562 leukemia): 1.5 µM
- TGI (K-562 leukemia): 11.1 µM
- GI50 (NCI-H23 lung): 3.25 µM
- TGI (NCI-H23 lung): > 100 µM
- GI50 (RXF 393 renal): 0.414 µM
- TGI (RXF 393 renal): 2.03 µM
- GI50 (SW-620 colon): 0.37 µM
- TGI (SW-620 colon): 1.79 µM

Compound: COc1cc(OC)c(C/C=C/c2ccccc2)cc1O
- TGI (786-0 renal): 32.2 µM
- TGI (DU-145 prostate): 31.5 µM
- TGI (EKVX NSCLC): 33.6 µM
- TGI (HS 578T breast): 47.3 µM
- TGI (K-562 leukemia): 33 µM
- TGI (MALME-3M melanoma): 30.5 µM
- TGI (NCI-H23 lung): 35.2 µM
- TGI (NCI-H522 lung): 27.2 µM
- TGI (SW-620 colon): 38 µM

Compound: CCCCCCC[CH2][Sn]([CH2]CCCCCCC)([O]c1cccc2cccnc12)[O]c1cccc2cccnc12
- GI50 (786-0 renal): 1.49 µM
- TGI (786-0 renal): 2.84 µM
- GI50 (EKVX NSCLC): 2.06 µM
- TGI (EKVX NSCLC): 7.18 µM
- GI50 (K-562 leukemia): 0.586 µM
- TGI (K-562 leukemia): 3.86 µM
- GI50 (MALME-3M melanoma): 1.44 µM
- TGI (MALME-3M melanoma): 2.9 µM
- GI50 (NCI-H522 lung): 0.605 µM
- TGI (NCI-H522 lung): 3.86 µM
- GI50 (RXF 393 renal): 2.06 µM
- TGI (RXF 393 renal): 8.07 µM
- GI50 (SW-620 colon): 0.391 µM
- TGI (SW-620 colon): 1.89 µM

Compound: C[C@@]12CCC(=O)c3coc(c31)C(=O)c1cc3c(cc12)C(=O)C=CC3=O
- GI50 (786-0 renal): > 1 µM
- TGI (786-0 renal): > 1 µM and 31 µM
- GI50 (EKVX NSCLC): > 1 µM
- TGI (EKVX NSCLC): > 1 µM and 48.6 µM
- GI50 (K-562 leukemia): > 1 µM
- TGI (K-562 leukemia): > 56.9 µM
- GI50 (MALME-3M melanoma): > 1 µM
- TGI (MALME-3M melanoma): > 1 µM and 31.3 µM
- TGI (NCI-H23 lung): 26.2 µM
- GI50 (NCI-H522 lung): > 1 µM
- TGI (NCI-H522 lung): > 1 µM and 22.1 µM
- GI50 (RXF 393 renal): > 1 µM
- TGI (RXF 393 renal): > 1 µM and 37.1 µM
- GI50 (SW-620 colon): > 1 µM
- TGI (SW-620 colon): > 1 µM and 35.7 µM

Compound: CCOc1cc2c(C(=O)CC)c(O)ccc2o1
- TGI (786-0 renal): > 100 µM
- TGI (EKVX NSCLC): > 100 µM
- TGI (K-562 leukemia): > 81.7 µM
- TGI (MALME-3M melanoma): > 100 µM
- TGI (NCI-H23 lung): > 100 µM
- TGI (NCI-H522 lung): > 100 µM
- TGI (RXF 393 renal): > 95.7 µM
- TGI (SW-620 colon): > 100 µM
